# According to patent US20230416692A1 (BOARD OF REGENTS, THE UNIVERSITY OF TEXAS SYSTEM, priority 2020, published 2023):
# Values joined by “and” are separate entries in the source; they are usually repeats but may differ in a detail not shown here. Equal values may be shown once. Read-outs that look alike come from different tables or passages of the source.
# Experiments:
# plasma protein = settings: data from literature; cited from earlier work
# SARS-CoV-2-Nluc [1] = test: microbe, parasite or virus in culture; type: cell-based
# [2] = human exposures in the clinics, cited from earlier work; for Cmax: read-out: Exposure (μM): Cmax
# SARS-CoV-2-Nluc [3] = test: microbe, parasite or virus in culture; type: cell-based; remark: listed apart in the source
# icSARS-CoV-2-mNG = type: cell-based, SARS-CoV-2
# [4] = Severe acute respiratory syndrome coronavirus 2
# [5] = Severe acute respiratory syndrome coronavirus 2, 48 h
compound,measurement,setting,value
Cc1c(O)cccc1C(=O)N[C@@H](CSc1ccccc1)[C@H](O)CN1C[C@H]2CCCC[C@H]2C[C@H]1C(=O)NC(C)(C)C [Nelfinavir],CC50,A549-hACE2 cells; human,12 ± 1.3 µM
same,Plasma protein binding (%),plasma protein,>98%
same,EC50,SARS-CoV-2-Nluc [1],0.77 µM
same,SI (selectivity index),SARS-CoV-2-Nluc [1],16 and 15.7
same,EC50,SARS-CoV-2-Nluc [1]; [4],0.77 to 2.74 µM
same,EC50,SARS-CoV-2-Nluc [1]; [5],0.77 to 2.74 µM
same,Exposure (μM): Cmin,[2],2.6 µM
same,Cmax,[2],8.3 µM
O=C(Nc1ccc([N+](=O)[O-])cc1Cl)c1cc(Cl)ccc1O [Niclosamide],CC50,A549-hACE2 cells; human,1.28 ± 0.23 µM
same,SI (selectivity index),SARS-CoV-2-Nluc [1],1.8
same,EC50,SARS-CoV-2-Nluc [1]; [5],0.715 µM
CC(C)[C@@]1(C(=O)N[C@H]2CC(=O)O[C@]2(O)CF)CC(c2nccc3ccccc23)=NO1 [Nivocasan],CC50,A549-hACE2 cells,> 50 µM
same,activity against SARS-CoV-2-Nluc (in words),SARS-CoV-2-Nluc [1],inactive
same,EC50,SARS-CoV-2-Nluc [1]; read-out: EC50,> 10 µM
CCC(CC)O[C@@H]1C=C(C(=O)O)C[C@H](N)[C@H]1NC(C)=O [Oseltamivir carboxylate],CC50,A549-hACE2 cells; human,> 50 µM
same,EC50,SARS-CoV-2-Nluc [1]; [5],> 10 µM
CCOc1nc(N)nc2c1ncn2[C@@H]1O[C@@H]2COP(=O)(OC(C)C)O[C@H]2[C@@]1(C)F (stereo partly shown) [PSI-352938],CC50,A549-hACE2 cells; human,> 50 µM
same,EC50,SARS-CoV-2-Nluc [1]; [5],> 10 µM
Cc1cn2nc([C@@H]3CCCCN3C(=O)c3cc(Cl)ccc3NS(C)(=O)=O)cc2nc1N1CC[C@H](N)C1 [Presatovir],EC50,SARS-CoV-2-Nluc [1]; [5],2.53 µM
CC1=CC[C@H](C(=O)N(c2cc(C#CC(C)(C)C)sc2C(=O)O)[C@H]2CC[C@](O)(CO[C@H]3CCOC3)CC2)CC1 [Radalbuvir],CC50,A549-hACE2 cells; human,> 50 µM
same,EC50,SARS-CoV-2-Nluc [1]; [5],> 10 µM
CCC(CC)COC(=O)[C@H](C)N[P@](=O)(OC[C@H]1O[C@@](C#N)(c2ccc3c(N)ncnn23)[C@H](O)[C@@H]1O)Oc1ccccc1 [Remdesivir],SI (selectivity index),SARS-CoV-2-Nluc [1],284
same,EC50,SARS-CoV-2-Nluc [1]; [4],0.115 µM
same,EC50,SARS-CoV-2-Nluc [1]; [5],0.115 µM
same,EC50,"SARS-CoV-2-Nluc [3]; Severe acute respiratory syndrome coronavirus 2, Vero C1008",1.28 µM
same,EC50,"SARS-CoV-2-Nluc [3]; Severe acute respiratory syndrome coronavirus 2, Vero C1008, 48 h",1.28 µM
NC(=O)c1ncn([C@@H]2O[C@H](CO)[C@@H](O)[C@H]2O)n1 [Ribavirin],CC50,A549-hACE2 cells; human,> 50 µM
same,EC50,SARS-CoV-2-Nluc [1]; [5],> 10 µM
Cc1cc(/C=C/C#N)cc(C)c1Nc1ccnc(Nc2ccc(C#N)cc2)n1 [Rilpivirine],CC50,A549-hACE2 cells; human,14.6 ± 1.6 µM
same,Plasma protein binding (%),plasma protein,99.7%
same,EC50,SARS-CoV-2-Nluc [1]; [5],7.8 ± 1.04 µM
same,Exposure (μM): Cmin,[2],0.30 µM
same,Cmax,[2],0.83 µM
CC(C)c1nc(CN(C)C(=O)N[C@H](C(=O)N[C@@H](Cc2ccccc2)C[C@H](O)[C@H](Cc2ccccc2)NC(=O)OCc2cncs2)C(C)C)cs1 [Ritonavir],activity against SARS-CoV-2-Nluc (in words),SARS-CoV-2-Nluc [1],inactive
same,EC50,SARS-CoV-2-Nluc [1]; [5],> 10 µM
Nc1ncnc2c1ncn2[C@@H]1O[C@H](OCP(=O)(O)O)C=C1F [Rovafovir],CC50,A549-hACE2 cells,> 50 µM
same,Plasma protein binding (%),plasma protein,58%
same,EC50,SARS-CoV-2-Nluc [1]; read-out: EC50,> 10 µM
CCOC(=O)/C=C/[C@H](C[C@@H]1CCNC1=O)NC(=O)[C@@H](CC(=O)[C@@H](NC(=O)c1cc(C)on1)C(C)C)Cc1ccc(F)cc1 [Rupintrivir],CC50,A549-hACE2 cells; human,> 50 µM
same,EC50,SARS-CoV-2-Nluc [1],1.87 ± 0.47 µM
same,SI (selectivity index),SARS-CoV-2-Nluc [1],>26.7
same,EC50,SARS-CoV-2-Nluc [1]; [4],0.77 to 2.74 µM
CC(C)(C)NC(=O)[C@@H]1C[C@@H]2CCCC[C@@H]2CN1C[C@@H](O)[C@H](Cc1ccccc1)NC(=O)[C@H](CC(N)=O)NC(=O)c1ccc2ccccc2n1 [Saquinavir],CC50,A549-hACE2 cells; human,35.1 ± 11.7 µM
same,Plasma protein binding (%),plasma protein,98%
same,EC50,SARS-CoV-2-Nluc [1],8.95 ± 0.31 µM
same,SI (selectivity index),SARS-CoV-2-Nluc [1],3.9
same,EC50,SARS-CoV-2-Nluc [1]; [5],8 to 9 µM
same,Exposure (μM): Cmin,[2],0.65 µM
same,Cmax,[2],3.7 µM
CC(C)OC(=O)[C@H](C)N[P@](=O)(OC[C@H]1O[C@@H](n2ccc(=O)[nH]c2=O)[C@](C)(F)[C@@H]1O)Oc1ccccc1 [Sofosbuvir],CC50,A549-hACE2 cells; human,> 50 µM
same,activity against SARS-CoV-2-Nluc (in words),SARS-CoV-2-Nluc [1],inactive
same,EC50,SARS-CoV-2-Nluc [1]; [5],> 10 µM
Fc1ccccc1-c1nc2ccn(Cc3ccc(-c4ccc(C(F)(F)F)cc4C(F)(F)F)nn3)cc-2n1 [Tegobuvir],CC50,A549-hACE2 cells; human,17.9 ± 3.1 µM
same,EC50,SARS-CoV-2-Nluc [1]; [5],> 10 µM
CC(C)OC(=O)[C@H](C)N[P@](=O)(CO[C@H](C)Cn1cnc2c(N)ncnc21)Oc1ccccc1 [Tenofovir alafenamide],CC50,A549-hACE2 cells; human,> 50 µM
same,Plasma protein binding (%),plasma protein,80%
same,activity against SARS-CoV-2-Nluc (in words),SARS-CoV-2-Nluc [1],inactive
same,EC50,SARS-CoV-2-Nluc [1]; [5],> 10 µM
same,Cmax,[2],0.4 µM
CCC[C@@]1(CCc2ccccc2)CC(O)=C([C@H](CC)c2cccc(NS(=O)(=O)c3ccc(C(F)(F)F)cn3)c2)C(=O)O1 [Tipranavir],CC50,A549-hACE2 cells; human,28.4 ± 0.5 µM
same,Plasma protein binding (%),plasma protein,99.9%
same,EC50,SARS-CoV-2-Nluc [1],8.65 ± 0.16 µM
same,SI (selectivity index),SARS-CoV-2-Nluc [1],3.3
same,EC50,SARS-CoV-2-Nluc [1]; [5],8 to 9 µM
same,Exposure (μM): Cmin,[2],30.8 µM
same,Cmax,[2],130 µM
CC#CC(=O)N1CC[C@@H](n2c(=O)n(-c3ccc(Oc4ccccc4)cc3)c3c(N)ncnc32)C1 [Tirabrutinib],CC50,A549-hACE2 cells; human,> 50 µM
same,EC50,SARS-CoV-2-Nluc [1]; [5],> 10 µM
COC[C@H]1C[C@@H](c2ncc(-c3ccc4c(c3)COc3cc5c(ccc6nc([C@@H]7CC[C@H](C)N7C(=O)[C@@H](NC(=O)OC)C(C)C)[nH]c65)cc3-4)[nH]2)N(C(=O)[C@H](NC(=O)OC)c2ccccc2)C1 [Velpatasvir],CC50,A549-hACE2 cells; human,> 50 µM
same,activity against SARS-CoV-2-Nluc (in words),SARS-CoV-2-Nluc [1],inactive
same,EC50,SARS-CoV-2-Nluc [1]; [5],> 10 µM
IFN-α,EC50 (concentration inhibiting 50% of viral replication),icSARS-CoV-2-mNG,101 u/ml
same,mNG expression (visual),icSARS-CoV-2-mNG,No mNG expression was visually observed
same,mNG signal,icSARS-CoV-2-mNG,dose-dependent reduction of mNG signal
Voxilaprevir,CC50,A549-hACE2 cells,16 ± 1.2 µM
same,EC50,SARS-CoV-2-Nluc [1]; read-out: EC50,> 10 µM
